# Measured values: patent US7947468B2, “Methods” (Medical Research Council, priority 2007, dated 2011)
# What was measured:
# Human Platelets = conditions: non-specific serine/threonine kinase inhibitor; cited from earlier work
# LRRK2 = assay: Concentration dependent phosphorylation of Nictide / LongLRRKtide by LRRK2; type: biochemical
# Text: A longer LRRKtide, with the +7 to +12 residues of the Thr 558 site was compared to the LRRKtide by phosphorylation with LRRK2. […] The LRRK2 affinity for the longLRRKtide is ten fold more than that that of LRRKtide.
# A derived consensus sequences is shown below the positions. FIG. 24B depicts an alignment of the peptide substrate sequences previously used for LRRK2, LRRKtide and LongLRRKtide, along with a new peptide in which the preferred LRRK2 residues are substituted, henceforth referred to as Nictide. […] Calculated Km values are 6 μM for Nictide.
compound,measurement,setting,value
CN[C@@H]1C[C@H]2O[C@@](C)([C@@H]1OC)n1c3ccccc3c3c4c(c5c6ccccc6n2c5c31)C(=O)NC4 [staurosporine],effect on platelet behaviour,Human Platelets,form extremely long filopodia and not to spread on glass
RLGRDKYKTLRQIRQGNTKQR (listed as Homo sapiens) [longLRRKtide],LRRK2 affinity relative to LRRKtide,LRRK2; compared to LRRKtide,ten fold
RLGWWRFYTLRRARQGNTKQR [Nictide],Km,"LRRK2; 5 min reaction times, read-out: Calculated Km",6 µM
